Measured values reported in publication PMC12344774, “Ferrocenyl Quinoline-Benzimidazole Hybrids: A Multistage Strategy to Combat Drug-Resistant Malaria” (Inorganic Chemistry, 2025).
Where two headings read alike, the source gives them in different places.

Experiments:
K1 = conditions: previous study; ref Baartzes et al.; read-out: PfIC50 (K1); cited from earlier work
[1] = Hydroxyl radical (ROS) generation with H2O2, DCFH2 fluorescent probe; conditions: 200 μM in 1:4 DMSO/PBS, H2O2 and H2DCF added, 30 min
Description: Fluorogenic redox-sensitive probes are often employed to measure the presence of ROS, due to their low cost, ease of use, and nontoxicity, allowing for spectrofluorimetric measurements. 2′,7′-Dichlorodihydrofluorescein diacetate (DCFH2-DA) is the most widely used fluorogenic probe. Cleavage of the acetate groups, through alkaline hydrolysis, generates 2′,7′-dichlorodihydrofluorescein (DCFH2), which in the presence of oxidants, yields the highly fluorescent 2′,7′-dichlorofluorescein (DCF, λem = 523 nm). The DCFH2 probe reacts with an array of oxidants, making it an ideal indicator of general oxidative stress. […] The presence of these radicals was confirmed by monitoring the fluorescence over time (Figure ). […].
Stock solutions of DCFH2-DA were prepared to 1 mM in 100% DMSO and stored at −20 °C in the dark until use. The deacetylation of DCFH2-DA involved adding 2 μL of a 0.5 M NaOH solution to 200 μL of the 1 mM DCFH2-DA stock solution. The solution was mixed for 30 min, in the dark, at room temperature and then quenched with 800 μL of PBS buffer to obtain a 200 μM H2DCF 1:4 DMSO/PBS solution mixture.
[…]. The fluorometer was blanked using a 1:4 DMSO/PBS solution mixture. To identify hydroxyl radical production, 2 μL of a 0.5% H2O2 solution was added to 900 μL of the 200 μM complex solution in a cuvette at 25 °C. 100 μL of the prepared H2DCF solution (200 μM) was quickly added, and the readings recorded at 530 nm (emission wavelength), at 2 min intervals, over 30 min.

rodent mouse model = tested on: rodent mouse model; parameters: method as in Baartzes et al.; conditions: in vivo, no mice were cured; ref Baartzes et al.; cited from earlier work
CHO cell line [2] = tested on: CHO cell line
Description: (§1) The samples were tested over 48 h against the Chinese hamster ovarian (CHO) cell line to determine general cytotoxicity. […] Quantitative assessment of toxic activity in vitro was determined via the MTT assay using the method described. Cell viability was determined colorimetrically using the breakdown of a dye by enzymes of the electron transport chain, taking place in the mitochondria of metabolically active living cells, as a marker for survival.
(§2) Compounds were tested in triplicate on a single occasion against these cells using the MTT assay. The test samples were prepared to a 10 mM stock solution, in 100% DMSO, and stored at −20 °C until use. Samples were tested as a suspension if not completely dissolved. Further dilutions to the desired starting concentration were freshly prepared in growth media at the start of the experiment.
(§3) Cells were plated to a density of 10^5 cells/well in 96-well plates and allowed to attach for 24 h. […] After 44 h MTT was added, and the plates were read 4 h later at 540 nm on a spectrophotometer following the addition of 100 μL of DMSO and gentle plate-shaking to solubilize and visualize the dye. Survival was plotted against concentration, and the IC50 values were obtained using a nonlinear dose–response curve fitting analysis via the Dotmatics software platform.

[3] = tested on: whole-cell NF54 parasites
Description: However, unlike the cell-free assay, the heme fractionation assay isolates both the heme and Hz components via a series of solubilization and separation steps. Furthermore, the absolute amount of each heme species per cell is calculated using the UV–vis data normalized to the flow cytometry parasite cell count.
The IC50 was previously determined using the pLDH assay. Following incubation for 28–32 h, to ensure progression to the trophozoite stage, parasitized red blood cells were saponin lysed to obtain isolated trophozoites. To determine the amount of heme and hemozoin, the trophozoites were then exposed to a series of cellular fractionation steps to successively liberate each heme species. The UV–visible spectra of these fractions were recorded between 400 and 415 nm on a multiwell plate reader. The percentage of each heme species was determined from the absorbance value of the Soret band of the pyridyl heme complex. To determine the absolute levels of each species, an aliquot of the isolated trophozoites was spiked with Trucount beads and stained with SYBR Green. These were run on a flow cytometer to determine absolute counts, which could in turn be used to calculate the absolute levels of each species per cell. The total heme in each of these samples was quantified using a standard curve. GraphPad Prism (v5) was used to analyze the final data set and perform the significance tests.

CHO cell line [4] = experiment: Cytotoxicity, MTT assay
Description: as §1, §2, §3

Row | Structure (SMILES) | IC50 (K1) | Hydroxyl radical generation (fluorescence intensity over time) [1] | Reduction in parasitemia (rodent mouse model) | CC50 (CHO cell line [2]) | Hemozoin (Hz) Fe level per cell versus untreated control ([3]; NF54 parasites at 3× IC50) | Free heme level per cell ([3]; NF54 parasites, 0.5–1.5× the IC50 value) | CC50 (CHO cell line [4]; read-out: CC50 (CHO) ± SEM, MTT, 48 h, technical triplicate on a single occasion) | SI (CC50 CHO/IC50 NF54) (CHO cell line [4]; selectivity index)
1 | Cc1ccc2c(c1)nc(-[c-]1cccc1)n2CCCNc1ccnc2cc(Cl)ccc12.[Fe+2].c1cc[cH-]c1 [Complex C1, 7-chloro-N-(3-(5-(methyl)-2-ferrocenyl-1H-benzo[d]imidazole-1-yl)propyl)quinolin-4-amine] | 0.283 µM | no changes in the fluorescence intensity | 92% | 43.7 ± 2.5 µM |  |  |  | 
2 | Cc1ccc2c(c1)nc(-[c-]1cccc1CN(C)C)n2CCCNc1ccnc2cc(Cl)ccc12.[Fe+2].c1cc[cH-]c1 (stereo not drawn) [Complex C3, 7-Chloro-N-(3-(5-methyl-2-(2-N,N-dimethylaminomethyl)ferrocenyl-1H-benzo[d]-imidazole-1-yl)propyl) Quinoline-4-amine] |  | produce hydroxyl radicals |  |  | more than five times lower | steadily increased | 6.1 ± 1.2 µM | 244.4
